Measured values as given in patent publication US9763939B2, “Compositions and methods for treating mitochondrial diseases” (BIOVISTA, INC., priority 2012, dated 2017).
Read-outs that look alike come from different tables or passages of the source.

Assays:
[1] = tested on: C57BL/6 mice with MOG-induced EAE; test: MOG-induced Experimental Allergic Encephalomyelitis (MOG-EAE) mouse model, spinal cord histology; type: in vivo; conditions: spinal cord H&E histology day 35, pirlindole 30 mg/kg, dexamethasone positive control, dose not given; for Severity Score (infiltration by inflammatory cells): vehicle 2.85±0.66; for White Matter Damage (WMD) percentage (axonal degeneration): vehicle 74.2±26.1
Protocol: EXAMPLE. Evaluation of anti-inflammatory and direct protection mode of action. Compounds described herein are evaluated in a standard MOG-induced Experimental Allergic Encephalomyelitis (MOG-EAE) mouse model of neurodegeneration to determine whether the compounds protect neurons directly, or via an indirect anti-inflammatory mode of action. EAE is induced in C57BL/6 mice by the single subcutaneous injection of MOG emulsified in Complete Freund's Adjuvant (CFA) on study days 0 and 6, followed by intraperitoneal supplemental immunostimulation with Pertussis Toxin (PT) carried out once at the time of EAE induction and once again 48 hours later. Test animals are observed for 35 days. Histology samples are harvested from the spinal cords of the animals on day 35 and are stained with Hematoxylin & Eosin (H&E). Analysis of the samples comprises two parameters: a) The Severity Score which refers mainly to infiltration by inflammatory cells and b) White Matter Damage (WMD), which refers mainly to axonal degeneration.

[2] = tested on: reuptake of 5-hydroxytryptamine; test: Effect on reuptake of 5-hydroxytryptamine
[3] = Pharmacokinetics and distribution in the rat; type: in vivo
[4] = in vivo; conditions: mouse
[5] = tested on: YG8R FRDA mouse fibroblasts; test: FAC/BSO oxidative stress insult, cell viability (Presto Blue), YG8R fibroblasts; type: cell-based; conditions: FAC and 1 mM BSO 48 h
Protocol: (§1) EXAMPLE. Primary fibroblast and neuronal stem cell (NSC) cultures from the YG8R FRDA mouse model. The cell cultures are used as a rapid means to test the effectiveness of potential therapies before proceeding to longer-term FRDA mouse model investigations. A parallel assay using YG22R NSCs may be used.
(§2) YG8R fibroblasts and NSCs are treated with increasing concentrations of test compound, and a vehicle-only negative control. Optionally, YG8R fibroblasts and NSCs are treated with a positive control compound, such as 1 μM idebenone. Two hours after the initial treatment, cells are lesioned with […] FAC and 1 mM BSO for 48 hours. Cell viability is then determined using Presto Blue Cell Viability Reagent (Life Technologies) for 24 hours and subsequent colorimetric spectrophotometry. […] Similarly, 1.8 μM tetrindole restored the vehicle-treated FAC/BSO cell viability value of 26% to a value of 53% (p<0.001), relative to the vehicle treated non-insulted cell value as 100%.

[6] = Absolute bioavailability; conditions: in vivo; species not given
[7] = Pharmacokinetics in the dog; type: in vivo
[8] = tested on: mice; conditions: mouse, in vivo, po
[9] = tested on: dopaminergic system; test: Effect on the dopaminergic system
[10] = in vivo; conditions: rat
[11] = tested on: cholinergic system; test: Effect on the cholinergic system
[12] = tested on: human primary fibroblasts from patients suffering from Friedreich's ataxia; test: cells; conditions: for statistically significant improvement in apoptosis compared to the BSO group: all tested doses
Protocol: (§3) EXAMPLE. […] Briefly, primary human fibroblasts from patients suffering from Friedreich's ataxia and LHON are lesioned with 100 μM BSO (LHON fibroblasts) or 250 μM BSO (FRDA fibroblasts) respectively, for 48 hours. Apoptosis, toxicity and viability rate of cells are determined using the ApoTox-Glo-Kit (Promega): the reagent for assessing viability and toxicity is applied 1:5 into treatment medium and incubated for 30 min at 37° C. Next, fluorescence is measured at the following wavelength sets: 400EX/505EM (viability) and 485EX/520EM (toxicity). In case of apoptosis measurement the caspase reagent was added 1:2 and incubated at RT for 30 min, the caspase activity (apoptosis) was measured as luminescence
(§4) EXAMPLE. Evaluation of Tetracyclic Pyrazinoindoles, and Pharmaceutically Acceptable Salts Thereof. One or more tetracyclic pyrazinoindoles are applied 2 and 24 hours before BSO treatment and are present throughout the assay. An optional reference compound, such as idebenone may be included for comparison. BSO treated cells without any treatment (BSO group) as well as cells neither treated with BSO nor with any treatment (Vehicle Control (VC) group) serve as controls. Cells are assessed for apoptosis, toxicity and viability immediately after BSO lesion by means of the ApoTox-Glo-assay Kit (Promega). Three independent experiments in four technical replicates are performed for all groups as depicted in Table 1 (different tetracyclic pyrazinoindoles are labeled as Test Items (T.I.1-T.I.2) and an optional positive control Reference Item 1 (R.I.1)):
(§5) BSO generally reduces a cell's protection against oxidative damage. Cells harvested from FRDA and LHON patients generate higher levels of ROS than normal cells. Apoptosis, toxicity and viability rate of cells are determined using the ApoTox-Glo-Kit (Promega): the reagent for assessing viability and toxicity is applied 1:5 into treatment medium and incubated for 30 min at 37° C. Next, fluorescence is measured at the following wavelength sets: 400EX/505EM (viability) and 485EX/520EM (toxicity). In case of apoptosis measurement the caspase reagent is added 1:2 and incubated at RT for 30 min, the caspase activity (apoptosis) was measured as luminescence
(§6) Descriptive statistical analysis was performed. Data are presented as mean±standard error of mean (SEM) in percent of vehicle control, MPP+ lesion and BSO lesion, respectively. Differences between compound-treated groups and controls (vehicle, BSO) are evaluated by means of One-Way ANOVA.
(§7) EXAMPLE. […] One vial is thawed and administered 2 and 24 hours before BSO treatment, at concentrations 0.6 μM, 1.8 μM, 5.5 μM and 16 μM. Apoptosis, toxicity and viability rate of cells are determined using the ApoTox-Glo-Kit (Promega). Human primary fibroblasts from patients suffering from Friedreich's ataxia are used. Three independent experiments in four technical replicates are performed for all groups. […] Statistical significance is indicated by NS=not significant p>0.1, *=p<0.05, **=p<0.01, ***=p<0.001 as determined by One-Way ANOVA. Data are shown as group mean+/−SEM.
(§8) EXAMPLE. Tetrindole is diluted in DMSO. One vial is thawed and administered 2 and 24 hours before BSO treatment, at concentrations 0.2 μM, 0.6 μM, 1.8 μM and 5.5 μM. Apoptosis, toxicity and viability rate of cells are determined using the ApoTox-Glo-Kit (Promega). Human primary fibroblasts from patients suffering from Friedreich's ataxia are used. Three independent experiments in four technical replicates are performed for all groups. […] Statistical significance is indicated by NS=not significant p>0.1, *=p<0.05, **=p<0.01, ***=p<0.001 as determined by One-Way ANOVA. Data are shown as group mean+/−SEM.

[13] = tested on: YG8R FRDA mouse neuronal stem cells (NSCs); test: FAC/BSO oxidative stress insult, cell viability (Presto Blue), YG8R NSCs; type: cell-based
Protocol: as §1, §2
Similarly, 1.8 μM tetrindole restored the vehicle-treated FAC/BSO cell viability value of 19% to a value of 40% (p<0.001), relative to the vehicle treated non-insulted cell value as 100%.

[14] = tested on: human primary fibroblasts from patients suffering from LHON; test: cells
Protocol: as §3, §4, §5, §6
as §7, with “LHON” for “Friedreich's ataxia”
as §8, with “LHON” for “Friedreich's ataxia”

[15] = tested on: reuptake of noradrenaline; test: Effect on reuptake of noradrenaline
[16] = too lipophillic; cannot reach the mitochondria (Edeas M. Pharm Res. 2011); cited from earlier work
[17] = rats, after oral and i.p. administration
[18] = Homo sapiens, Fibroblast, 48 h, read-out: protective effect in relative cell viability

Molecule: C[C@@H]1C[C@H]2[C@@H]3CCC4=CC(=O)C=C[C@]4(C)[C@@]3(F)[C@@H](O)C[C@]2(C)[C@@]1(O)C(=O)CO [dexamethasone]
- Severity Score (infiltration by inflammatory cells) [1]: 1.45±1.09
- White Matter Damage (WMD) percentage (axonal degeneration) [1]: 24.4±33.3 percentage

Molecule: Cc1ccc2c(c1)c1c3n2CCNC3CCC1 (stereo not drawn) [pirlindole, 2,3,3a,4,5,6-hexahydro-8-methyl-1H-pyrazino[3,2,1-j,k]carbazole]
- effect on the reuptake of 5-hydroxytryptamine [2]: inhibitory effect
- fraction eliminated ([3]; after 48 h): 80-85%
- Tmax ([3]; in vivo, rat, oral, approximately): 2 to 6 h
- second phase of elimination ([3]; rat): 35 to 70 h
- first phase of elimination ([3]; rat, approximately): approximately 8 h
- blood brain barrier (BBB) penetration [3, 17]: good blood brain barrier (BBB) penetration
- tissue distribution [3, 17]: distributed in the lungs, liver, kidneys, spleen and various glands (but only transiently in bone marrow)
- fraction eliminated ([3]; within 24 h): 40-60%
- LD50 ([4]; iv): 70 to 80 mg/kg
- LD50 ([4]; po): 400 to 1000 mg/kg
- protection against the oxidative stress insult [5]: significantly protect
- viability at 16 µM ([5]; Mus musculus, Fibroblast, 16 μM, vehicle-treated FAC/BSO value 26%, relative to vehicle treated non-insulted cells as 100%, p<0.001): 67%
- bioavailability [6]: 20 to 30%
- first phase of elimination ([7]; dog, approximately): approximately 1.5 h
- second phase of elimination ([7]; dog, approximately): ~11 h
- third phase of elimination ([7]; dog, approximately): ~185 h
- Tmax ([7]; in vivo, dog, oral, approximately): 1 to 2 h
- blood levels versus dose ([7]; male and female dogs, repeated administration of three dose levels p.o. for one year): strictly dose-dependent
- maximal non-lethal dose [8]: approximately 300 mg/kg
- effect on the dopaminergic system [9]: no effect
- LD50 ([10]; iv): ~80 mg/kg
- LD50 ([10]; po): 2000 to 5000 mg/kg
- Severity Score (infiltration by inflammatory cells) [1]: 2.7±1.29
- White Matter Damage (WMD) percentage (axonal degeneration) [1]: 41±44.1 percentage
- effect on the cholinergic system [11]: no effect
- statistically significant overall cytotoxicity over BSO control [12]: not observed at any dose
- apoptosis (caspase activity) ([12]; 16 μM, only after the short incubation (2 h before lesion)): reduced apoptosis
- viability at 16 µM [12, 18]: 161%
- statistically significant improvement in apoptosis compared to the BSO group [12]: not observed at any dose
- protection against the oxidative stress insult [13]: significantly protect
- viability at 5.5 µM ([13]; Mus musculus, 5.5 μM, vehicle-treated FAC/BSO value 19%, relative to vehicle treated non-insulted cells as 100%, p<0.001): 41%
- statistically significant overall cytotoxicity over BSO control [14]: not observed at any dose
- apoptosis (caspase activity) ([14]; 16 μM, only significant after 24 h): reduced
- apoptosis compared to the BSO group ([14]; 5.5 dose): Statistically significant inferior apoptosis
- concentrations with protective effect or protective trend on cell viability ([14]; BSO lesion, pirlindole at both time points, tetrindole dose dependent protective trend): 16 µM
- viability at 16 µM [14, 18]: 122%
- effect on the reuptake of noradrenaline [15]: inhibitory effect

Molecule: c1cc2c(cc1C1CCCCC1)c1c3n2CCNC3CCC1 (stereo not drawn) [tetrindole, 2,3,3a,4,5,6-Hexahydro-8-cyclohexyl-1H-pyrazino[3,2,1-j,k]carbazole]
- protection against the oxidative stress insult [5]: significantly protect
- viability at 1.8 µM ([5]; Mus musculus, Fibroblast, 1.8 μM, vehicle-treated FAC/BSO value 26%, relative to vehicle treated non-insulted cells as 100%, p<0.001): 53%
- viability at 1.8 µM [12, 18]: 156%
- statistically significant improvement in apoptosis compared to the BSO group [12]: not observed at any dose
- statistically significant overall cytotoxicity over BSO control ([12]; human): not observed at any dose, except the highest dose of 5.5
- protection against the oxidative stress insult [13]: significantly protect
- viability at 1.8 µM ([13]; Mus musculus, 1.8 μM, vehicle-treated FAC/BSO value 19%, relative to vehicle treated non-insulted cells as 100%, p<0.001): 40%
- statistically significant overall cytotoxicity over BSO control [14]: not observed at any dose
- viability at 1.8 µM [14, 18]: 122%
- statistically significant improvement in apoptosis compared to the BSO group ([14]; all tested doses): not observed at any dose
- statistically significant improvement in viability compared to the BSO group ([14]; all tested doses): not observed at any dose

Molecule: vitamin E
- permeation of cell membranes [16]: permeates cell membranes poorly
